Earlier results in patent US20070049498A1, “Agricultural compositions which enhance performance of herbicides” (priority 2005, published 2007).

Settings: glyphosate in acid form

O=C(O)CNCP(=O)(O)O [glyphosate, N-phosphonomethylglycine]
water solubility: about 1.2%
